{"source": "ChEMBL document CHEMBL1208702", "about": "“Use of 2-[(18)F]fluoroethylazide for the Staudinger ligation - Preparation and characterisation of GABA(A) receptor binding 4-quinolones” (Bioorg Med Chem Lett, 2010)", "test": "Displacement of [3H]Ro151788 from GABA-A receptor in Wistar rat cerebellar membrane after 1 hr by liquid scintillation counting", "assay_type": "cell membranes, Cerebellum", "data": [{"smiles": "O=C(NCCF)c1c[nH]c2ccc(Cc3ccccc3)cc2c1=O", "values": [{"measurement": "Ki", "result": 0.7, "unit": "nM"}]}]}
